This is an account of results in patent US12378210B2, “Pharmaceutical composition comprising tizoxanide and pharmaceutical use thereof” (BEIJING JUNKE HUAYUAN MED TECH CO., LTD., priority 2020, dated 2025).

One series deals with DHBV. The series is described as follows: Evaluation of in vivo anti-hepatitis B virus effect (serum DHBV DNA, dot-blot hybridization). Details: species or system sheld ducks (Tadorna). The note with it: intragastric once daily. As to the method: The sheld ducks (Tadorna) with vertical transmission infection and positive DHBV DNA were randomly grouped, 8 sheld ducks each group. […] Blood was collected intravenously prior to administration (T0) and 7 days (T7), 14 days (T14), 21 days (T21) and 28 days ([…]) after administration, and the serum was separated and frozen at -70° C. for determination. Determination of DHBV DNA content in serum by using dot-blot molecular hybridization was as follows: the duck serum described above was taken, spots were simultaneously formed on detection films for each batch, the change of the DHBV DNA level in the duck serum was determined, the DHBV DNA probe was labeled by ^32P according to the method of the instruction of the nick translation kit, and a duck serum dot-blot experiment was performed.

In series [1] the test system is influenza A virus mouse lung adaptive strain A/PR/8/34. Type of series: in vivo, Kunming mice.
On the set-up of series [2]: species or system SD rats. The note with it: male, SD, rat, in vivo, po. As to the method:
34.75 mg of nitazoxanide was added to 10 mL of 0.5% sodium carboxymethylcellulose solution, and the mixture was mixing homogeneously for later use; 41.67 mg of tizoxanide choline salt of formula (I) prepared in Example 2 was added to 10 mL of 0.5% sodium carboxymethylcellulose solution, and the mixture was mixed homogeneously for later use; 30 mg of tizoxanide was added to 5 mL of 0.5% sodium carboxymethylcellulose solution, followed by addition of 40% aqueous choline hydroxide solution, and the mixture was mixed homogeneously, and then added with 0.5% sodium carboxymethyl cellulose solution to a final volume of 10 mL to obtain a mixture of tizoxanide and choline for later use. […] Provided were male SD rats weighing 180 g to 220 g, 3 rats each group; all animals were fasted for 12 h prior to administration. The rats were separately administered intragastrically with the solution of the nitazoxanide, the solution of the tizoxanide choline salt of formula (I) or the mixture of tizoxanide and choline described above at a dose of 10 mL/kg each. […] The collected blood was added with sodium heparin for anticoagulation, followed by centrifugation to separate plasma, and the plasma was storing at −80° C. for determination. The content of tizoxanide in plasma was determined by LC-MS/MS (instrument: LC-MS/MS-19, TQ5500 Triple quad); internal Standard (IS) was tolbutamide; mass spectrum conditions: an electrospray ion source and a negative ion multiple reaction detection (Tizoxanide: […] ACQUITY UPLC CORTECS T3, 2.7 μm (2.1×100 mm); column temperature was 40° C.; flow rate was 0.6 mL/min. The pharmacokinetic parameters were calculated by utilizing WinNonlin according to the plasma concentration data at different time points. The results are shown in Table 1: […]

The conditions of series [3]: in vivo, po; cited from earlier work.
[4] abbreviates: 200 mg/kg active ingredient basis, T0 (prior to administration).
Setting [5] is: 200 mg/kg active ingredient basis, T7 (7 days).
The mark [6] stands for this setting: 200 mg/kg active ingredient basis, T14 (14 days).
Setting [7] is: 200 mg/kg active ingredient basis, T21 (21 days).
Where [8] appears, read: 200 mg/kg active ingredient basis, T28 (28 days).

Usually AUC(0-t) stands for the area under the concentration-time curve up to a stated or last time point. Higher therefore signals high exposure. Usually Cmax stands for the peak of the concentration-time curve. Broadly, the Tmax is the time at which the peak concentration occurs.

Molecules are shown by their SMILES. Values joined by “and” are separate entries in the source; they are usually repeats but may differ in a detail not shown here. Equal entries are not always repeated. Structures can show the parent of a compound that is named as a salt. Where two headings read alike, the source gives them in different places.

With `O=C(Nc1ncc([N+](=O)[O-])s1)c1ccccc1O` [Tizoxanide choline salt of formula (I), tizoxanide choline salt], the OD490 value in the series on DHBV (100 mg/kg active ingredient basis, T0 (prior to administration)) was 1.47 ± 0.20; in the series on DHBV (100 mg/kg active ingredient basis, T7 (7 days)) it was 0.43 ± 0.18**ΔΔ; in the series with DHBV (100 mg/kg active ingredient basis, T14 (14 days)), 0.39 ± 0.34**ΔΔ; in the series with DHBV (100 mg/kg active ingredient basis, T21 (21 days)), 0.34 ± 0.25**ΔΔ; in the series on DHBV (100 mg/kg active ingredient basis, T28 (28 days)) it was 0.53 ± 0.37**ΔΔ; in the series on DHBV (setting [4]), 0.96 ± 0.47. The OD490 value is recorded as 0.15 ± 0.08**ΔΔ in the series with DHBV (setting [5]), 0.10 ± 0.05**ΔΔ in the series on DHBV (setting [6]), 0.07 ± 0.04**ΔΔ with DHBV (setting [7]) and 0.27 ± 0.17**ΔΔ in the series with DHBV (setting [8]). Further, in series [1] (mouse, in vivo), the Survival rates was 9/10 and 3/10. Besides, the “AUC(0-t)” value in series [2] was 2070.01 ng·h/mL. Further, the “AUC(0-∞)” value in series [2] came to 2280.30 ng·h/mL. In series [2], this compound yielded a Cmax of 837.16 ng/mL. This compound returned a T1/2 in series [2] of 2.53 h. In addition, the time of peak concentration (Tmax) in series [2] is 0.25 h.

On to `CC(=O)Oc1ccccc1C(=O)Nc1ncc([N+](=O)[O-])s1` [Nitazoxanide, o-N-(5-nitrothiazol-2-yl)carbamoyl-phenol-acetate, reference compound], for which the OD490 value with DHBV (setting [4]) is reported as 1.67 ± 0.11; in the series with DHBV (setting [5]) it was 1.37 ± 0.27; in the series on DHBV (setting [6]), 1.19 ± 0.51; in the series with DHBV (setting [7]), 0.72 ± 0.38**ΔΔ; in the series on DHBV (setting [8]) it was 0.72 ± 0.48**ΔΔ. For the same compound, the Survival rates is reported as 2/10 in series [1] (50 mg/kg active ingredient basis, intragastric 2 times daily for 5 days, […], observed 14 days) and 7/10 in series [1] (100 mg/kg active ingredient basis, intragastric 2 times daily for 5 days, […], observed 14 days). The area under the curve AUC(0-t) in series [2] was 1325.50 ng·h/mL. Moreover, the “AUC(0-∞)” value in series [2] worked out at 1327.91 ng·h/mL. The compound further showed a Cmax in series [2] of 380.55 ng/mL. For the same compound, the T1/2 in series [2] worked out at 0.65 h. For the same compound, the Tmax in series [2] amounted to 2.00 h. The “original form of nitazoxanide in blood” value in series [3] is listed as “undetectable”.
